{"source": "patent US8192962B2", "about": "“Processes for detecting toxic substances” (Daikin Industries, Ltd., priority 2001, dated 2012)", "test_system": "Energy system protein genes", "assay": "DNA chip mRNA expression in yeast, energy system protein genes (Table 4)", "assay_type": "cell-based, Saccharomyces cerevisiae S288C", "in_short": "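S. cerevisiae S288C grown at 25° C in YPD were exposed in log phase for two hours to one toxic chemical at a growth-inhibiting, non-lethal concentration; untreated cells served as control. Poly(A) mRNA was reverse-transcribed with Cy3/Cy5-dUTP and hybridized to a whole-genome yeast DNA chip at 65° C for over 12 hours; values are fluorescence ratios versus untreated.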", "data": [{"compound": "COc1cc(CNC(=O)CCCCC=CC(C)C)ccc1O", "note": "[(12), 8-methyl-N-vanillyl-6-nonenamide]", "values": [{"measurement": "The level of expressed mRNA in the presence of chemical substance/The level of expressed mRNA in the absence of chemical substance", "setting": "yeast gene YJR048W", "value": 0.8}, {"measurement": "The level of expressed mRNA in the presence of chemical substance/The level of expressed mRNA in the absence of chemical substance", "setting": "yeast gene YJR121W, cells incubated two hours with the chemical substance", "value": 0.8}, {"measurement": "The level of expressed mRNA in the presence of chemical substance/The level of expressed mRNA in the absence of chemical substance", "setting": "yeast gene YJR155W", "value": 1.0}, {"measurement": "The level of expressed mRNA in the presence of chemical substance/The level of expressed mRNA in the absence of chemical substance", "setting": "yeast gene YKL016C, cells incubated two hours with the chemical substance", "value": 1.0}, {"measurement": "The level of expressed mRNA in the presence of chemical substance/The level of expressed mRNA in the absence of chemical substance", "setting": "yeast gene YKL060C, cells incubated two hours with the chemical substance", "value": 1.3}, {"measurement": "The level of expressed mRNA in the presence of chemical substance/The level of expressed mRNA in the absence of chemical substance", "setting": "yeast gene YKL141W, cells incubated two hours with the chemical substance", "value": 0.8}, {"measurement": "The level of expressed mRNA in the presence of chemical substance/The level of expressed mRNA in the absence of chemical substance", "setting": "yeast gene YKL148C, cells incubated two hours with the chemical substance", "value": 0.8}, {"measurement": "The level of expressed mRNA in the presence of chemical substance/The level of expressed mRNA in the absence of chemical substance", "setting": "yeast gene YKR009C, cells incubated two hours with the chemical substance", "value": 1.0}, {"measurement": "The level of expressed mRNA in the presence of chemical substance/The level of expressed mRNA in the absence of chemical substance", "setting": "yeast gene YKR058W, cells incubated two hours with the chemical substance, 25° C., YPD medium", "value": 0.9}, {"measurement": "The level of expressed mRNA in the presence of chemical substance/The level of expressed mRNA in the absence of chemical substance", "setting": "yeast gene YKR097W", "value": 1.8}, {"measurement": "The level of expressed mRNA in the presence of chemical substance/The level of expressed mRNA in the absence of chemical substance", "setting": "yeast gene YLL041C, cells incubated two hours with the chemical substance", "value": 0.8}, {"measurement": "The level of expressed mRNA in the presence of chemical substance/The level of expressed mRNA in the absence of chemical substance", "setting": "yeast gene YLR038C, cells incubated two hours with the chemical substance", "value": 0.6}, {"measurement": "The level of expressed mRNA in the presence of chemical substance/The level of expressed mRNA in the absence of chemical substance", "setting": "yeast gene YLR044C, cells incubated two hours with the chemical substance", "value": 1.4}, {"measurement": "The level of expressed mRNA in the presence of chemical substance/The level of expressed mRNA in the absence of chemical substance", "setting": "yeast gene YLR134W, cells incubated two hours with the chemical substance", "value": 1.2}, {"measurement": "The level of expressed mRNA in the presence of chemical substance/The level of expressed mRNA in the absence of chemical substance", "setting": "yeast gene YLR258W, cells incubated two hours with the chemical substance", "value": 0.9}, {"measurement": "The level of expressed mRNA in the presence of chemical substance/The level of expressed mRNA in the absence of chemical substance", "setting": "yeast gene YLR284C, cells incubated two hours with the chemical substance", "value": 0.6}, {"measurement": "The level of expressed mRNA in the presence of chemical substance/The level of expressed mRNA in the absence of chemical substance", "setting": "yeast gene YLR295C, cells incubated two hours with the chemical substance, 25° C., YPD medium", "value": 0.5}, {"measurement": "The level of expressed mRNA in the presence of chemical substance/The level of expressed mRNA in the absence of chemical substance", "setting": "yeast gene YLR304C, cells incubated two hours with the chemical substance", "value": 1.0}, {"measurement": "The level of expressed mRNA in the presence of chemical substance/The level of expressed mRNA in the absence of chemical substance", "setting": "yeast gene YLR345W", "value": 1.6}, {"measurement": "The level of expressed mRNA in the presence of chemical substance/The level of expressed mRNA in the absence of chemical substance", "setting": "yeast gene YLR354C, cells incubated two hours with the chemical substance", "value": 1.2}, {"measurement": "The level of expressed mRNA in the presence of chemical substance/The level of expressed mRNA in the absence of chemical substance", "setting": "yeast gene YLR377C, cells incubated two hours with the chemical substance", "value": 0.6}, {"measurement": "The level of expressed mRNA in the presence of chemical substance/The level of expressed mRNA in the absence of chemical substance", "setting": "yeast gene YLR395C, cells incubated two hours with the chemical substance", "value": 0.6}, {"measurement": "The level of expressed mRNA in the presence of chemical substance/The level of expressed mRNA in the absence of chemical substance", "setting": "yeast gene YML054C", "value": 1.8}, {"measurement": "The level of expressed mRNA in the presence of chemical substance/The level of expressed mRNA in the absence of chemical substance", "setting": "yeast gene YML087C", "value": 0.8}, {"measurement": "The level of expressed mRNA in the presence of chemical substance/The level of expressed mRNA in the absence of chemical substance", "setting": "yeast gene YML120C, cells incubated two hours with the chemical substance", "value": 0.9}, {"measurement": "The level of expressed mRNA in the presence of chemical substance/The level of expressed mRNA in the absence of chemical substance", "setting": "yeast gene YML129C, cells incubated two hours with the chemical substance", "value": 0.8}, {"measurement": "The level of expressed mRNA in the presence of chemical substance/The level of expressed mRNA in the absence of chemical substance", "setting": "yeast gene YMR073C, cells incubated two hours with the chemical substance", "value": 0.8}, {"measurement": "The level of expressed mRNA in the presence of chemical substance/The level of expressed mRNA in the absence of chemical substance", "setting": "yeast gene YMR118C", "value": 0.8}, {"measurement": "The level of expressed mRNA in the presence of chemical substance/The level of expressed mRNA in the absence of chemical substance", "setting": "yeast gene YMR205C, cells incubated two hours with the chemical substance", "value": 1.1}, {"measurement": "The level of expressed mRNA in the presence of chemical substance/The level of expressed mRNA in the absence of chemical substance", "setting": "yeast gene YMR261C, cells incubated two hours with the chemical substance", "value": 0.9}, {"measurement": "The level of expressed mRNA in the presence of chemical substance/The level of expressed mRNA in the absence of chemical substance", "setting": "yeast gene YMR267W, cells incubated two hours with the chemical substance, 25° C., YPD medium", "value": 0.8}, {"measurement": "The level of expressed mRNA in the presence of chemical substance/The level of expressed mRNA in the absence of chemical substance", "setting": "yeast gene YMR323W, cells incubated two hours with the chemical substance", "value": 1.2}, {"measurement": "The level of expressed mRNA in the presence of chemical substance/The level of expressed mRNA in the absence of chemical substance", "setting": "yeast gene YNL071W", "value": 1.3}, {"measurement": "The level of expressed mRNA in the presence of chemical substance/The level of expressed mRNA in the absence of chemical substance", "setting": "yeast gene YNL202W, cells incubated two hours with the chemical substance", "value": 0.9}, {"measurement": "The level of expressed mRNA in the presence of chemical substance/The level of expressed mRNA in the absence of chemical substance", "setting": "yeast gene YNL241C", "value": 2.0}, {"measurement": "The level of expressed mRNA in the presence of chemical substance/The level of expressed mRNA in the absence of chemical substance", "setting": "yeast gene YNL331C", "value": 0.9}, {"measurement": "The level of expressed mRNA in the presence of chemical substance/The level of expressed mRNA in the absence of chemical substance", "setting": "yeast gene YOL086C, cells incubated two hours with the chemical substance", "value": 1.3}, {"measurement": "The level of expressed mRNA in the presence of chemical substance/The level of expressed mRNA in the absence of chemical substance", "setting": "yeast gene YOL165C", "value": 0.8}, {"measurement": "The level of expressed mRNA in the presence of chemical substance/The level of expressed mRNA in the absence of chemical substance", "setting": "yeast gene YOR142W, cells incubated two hours with the chemical substance", "value": 0.8}, {"measurement": "The level of expressed mRNA in the presence of chemical substance/The level of expressed mRNA in the absence of chemical substance", "setting": "yeast gene YOR178C, cells incubated two hours with the chemical substance", "value": 1.7}, {"measurement": "The level of expressed mRNA in the presence of chemical substance/The level of expressed mRNA in the absence of chemical substance", "setting": "yeast gene YOR388C, cells incubated two hours with the chemical substance", "value": 0.7}, {"measurement": "The level of expressed mRNA in the presence of chemical substance/The level of expressed mRNA in the absence of chemical substance", "setting": "yeast gene YPL031C, cells incubated two hours with the chemical substance", "value": 0.8}, {"measurement": "The level of expressed mRNA in the presence of chemical substance/The level of expressed mRNA in the absence of chemical substance", "setting": "yeast gene YPL061W, cells incubated two hours with the chemical substance", "value": 1.0}, {"measurement": "The level of expressed mRNA in the presence of chemical substance/The level of expressed mRNA in the absence of chemical substance", "setting": "yeast gene YPL088W", "value": 3.6}, {"measurement": "The level of expressed mRNA in the presence of chemical substance/The level of expressed mRNA in the absence of chemical substance", "setting": "yeast gene YPL171C", "value": 1.4}, {"measurement": "The level of expressed mRNA in the presence of chemical substance/The level of expressed mRNA in the absence of chemical substance", "setting": "yeast gene YPL240C", "value": 0.8}, {"measurement": "The level of expressed mRNA in the presence of chemical substance/The level of expressed mRNA in the absence of chemical substance", "setting": "yeast gene YPL262W, cells incubated two hours with the chemical substance", "value": 1.1}, {"measurement": "The level of expressed mRNA in the presence of chemical substance/The level of expressed mRNA in the absence of chemical substance", "setting": "yeast gene YPL275W, cells incubated two hours with the chemical substance", "value": 0.6}, {"measurement": "The level of expressed mRNA in the presence of chemical substance/The level of expressed mRNA in the absence of chemical substance", "setting": "yeast gene YPL276W, cells incubated two hours with the chemical substance", "value": 0.6}, {"measurement": "The level of expressed mRNA in the presence of chemical substance/The level of expressed mRNA in the absence of chemical substance", "setting": "yeast gene YPR048W, cells incubated two hours with the chemical substance", "value": 0.8}, {"measurement": "The level of expressed mRNA in the presence of chemical substance/The level of expressed mRNA in the absence of chemical substance", "setting": "yeast gene YPR184W, cells incubated two hours with the chemical substance", "value": 1.4}]}]}
